Assay results reported in patent publication US20170209385A1, “ETHYLCELLULOSE DISPERSION AND FILM” (Dow Global Technologies LLC, priority 2014, published 2017).
Structures can show the parent of a compound that is named as a salt. Where two headings read alike, the source gives them in different places.

Key:
[1] = Screening: visual/manual check whether a coalesced film formed; format: physicochemical
[2] = 25° C.; cited from earlier work
[3] = unitless; cited from earlier work
[4] = ethylcellulose dispersion plus additive, intact on and after removal from substrate

Compound | Film? Did the sample form a coalesced film? (yes or no) [1, 4] | W. Sol. solubility in water [2] [mg/mL] | logP logarithm of the water-octanol partition coefficient [3] | Film? Did the sample form a coalesced film? (yes or no) [1]
OC[C@@H](O)[C@@H](O)[C@H](O)[C@@H](O)CO [sorbitol] | no | 182 | −3.262 | –
CCCCCCCCCCCCCCCCCC(=O)O [stearic acid] | yes | – | – | –
OC[C@@H](O)[C@@H](O[C@H]1O[C@H](CO)[C@@H](O)[C@H](O)[C@H]1O)[C@H](O)[C@@H](O)CO [maltitol] | no | – | – | –
OCCOc1ccccc1 [2-phenoxy ethanol, 2-Phenoxyethanol] | – | 30 | – | yes
OCc1ccccc1 [benzyl alcohol] | yes | 42.9 | – | –
OCC(O)CO [glycerol] | no | 500 | −1.85 | –
OCCNCCO [diethanolamine] | no | – | −1.761 | –
CCCCCCCC/C=C\CCCCCCCC(=O)O [oleic acid] | yes | – | – | –
CCOC(=O)CC(O)(CC(=O)OCC)C(=O)OCC [triethyl citrate] | yes | – | 1.267 | –
CC(C)(C)CC(C)(C)c1ccc(OCCOCC[N+](C)(C)Cc2ccccc2)cc1 [benzethonium chloride] | – | – | – | no
O=C(OCc1ccccc1)c1ccccc1 [benzyl benzoate] | yes | – | 3.81 | –
CCCCOC(=O)CC(O)(CC(=O)OCCCC)C(=O)OCCCC [tributyl citrate] | yes | – | 4.324 | –
CC(=O)OCC(COC(C)=O)OC(C)=O [triacetin] | yes | 1.16 | 0.216 | –
O=C(O)CCC(=O)O [succinic acid] | no | – | −0.933 | –
OCCc1ccccc1 [phenylethyl alcohol] | yes | 20 | – | –
CCCCC/C=C\C/C=C\CCCCCCCC(=O)O [linoleic acid] | yes | – | – | –
OC[C@@H](O)[C@@H](O)[C@H](O)[C@H](O)CO [mannitol] | no | 182 | −3.62 | –
CC(O)CO (stereo not drawn) [propylene glycol] | yes | – | −1.008 | –
OC[C@@H](O)[C@H](O)[C@@H](O)CO [xylitol] | no | 1500 | −2.65 | –
CCCCOC(=O)CCCCCCCCC(=O)OCCCC [dibutyl sebacate] | yes | – | 5.958 | –
CCCOC(=O)c1cc(O)c(O)c(O)c1 [propyl gallate] | yes | – | 1.779 | –
COC(=O)c1ccccc1C(=O)OC [dimethyl phthalate] | – | – | – | yes
CCCCCCCC/C=C\CCCCCCCCO [oleyl alcohol] | yes | – | 7.562 | –
CC[N+](CC)(CC(=O)Nc1c(C)cccc1C)Cc1ccccc1 [denatonium benzoate] | no | – | −0.088 | –
CCOC(=O)c1ccccc1C(=O)OCC [diethyl phthalate] | yes | – | – | –
